Patent US8148391B2 (Cephalon, Inc., priority 2006, dated 2012)
Where two headings read alike, the source gives them in different places. Each block holds one compound with its values, some of them ahead of it.

What was measured:
[1] = molecular target: T1, c-Met (cytoplasmic domain) (Homo sapiens, UniProt P08581); experiment: c-Met Kinase Assay (same methods as for ALK, with modifications); type: biochemical
T1 construct: 10 ng/mL c-Met (cytoplasmic domain, Invitrogen Corporation #PV3143); purchased Invitrogen Corporation PV3143
T1 sequence (P08581 956-1390 limits assumed): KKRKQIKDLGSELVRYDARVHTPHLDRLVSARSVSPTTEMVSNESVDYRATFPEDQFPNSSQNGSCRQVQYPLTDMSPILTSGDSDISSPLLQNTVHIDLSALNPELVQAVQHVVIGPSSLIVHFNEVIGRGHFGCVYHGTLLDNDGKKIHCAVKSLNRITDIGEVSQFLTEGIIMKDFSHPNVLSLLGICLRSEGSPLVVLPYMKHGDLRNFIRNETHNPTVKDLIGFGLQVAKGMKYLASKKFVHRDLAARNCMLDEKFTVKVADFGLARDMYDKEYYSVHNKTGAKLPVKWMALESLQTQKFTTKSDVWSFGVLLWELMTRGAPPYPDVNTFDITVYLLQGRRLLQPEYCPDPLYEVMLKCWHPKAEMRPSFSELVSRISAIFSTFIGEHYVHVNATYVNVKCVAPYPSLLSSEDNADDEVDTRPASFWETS
Procedure, shortened: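 IC50 values were fitted by variable-slope sigmoidal regression of percent inhibition against log compound concentration. Phosphorylation was read with Eu-N1 PT66 antibody after a 15 min, 37 °C reaction. The reaction was initiated with 10 ng/mL c-Met cytoplasmic domain on wells coated with 10 μg/mL PLC-γ in TBS.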

[2] = molecular target: T2, baculovirus-expressed ALK (Homo sapiens, UniProt Q9UM73); experiment: ALK Kinase Assay (ELISA-type, time-resolved fluorescence); type: biochemical
T2 construct: host or cells: baculovirus expression system
T2 sequence (Q9UM73 19-1620): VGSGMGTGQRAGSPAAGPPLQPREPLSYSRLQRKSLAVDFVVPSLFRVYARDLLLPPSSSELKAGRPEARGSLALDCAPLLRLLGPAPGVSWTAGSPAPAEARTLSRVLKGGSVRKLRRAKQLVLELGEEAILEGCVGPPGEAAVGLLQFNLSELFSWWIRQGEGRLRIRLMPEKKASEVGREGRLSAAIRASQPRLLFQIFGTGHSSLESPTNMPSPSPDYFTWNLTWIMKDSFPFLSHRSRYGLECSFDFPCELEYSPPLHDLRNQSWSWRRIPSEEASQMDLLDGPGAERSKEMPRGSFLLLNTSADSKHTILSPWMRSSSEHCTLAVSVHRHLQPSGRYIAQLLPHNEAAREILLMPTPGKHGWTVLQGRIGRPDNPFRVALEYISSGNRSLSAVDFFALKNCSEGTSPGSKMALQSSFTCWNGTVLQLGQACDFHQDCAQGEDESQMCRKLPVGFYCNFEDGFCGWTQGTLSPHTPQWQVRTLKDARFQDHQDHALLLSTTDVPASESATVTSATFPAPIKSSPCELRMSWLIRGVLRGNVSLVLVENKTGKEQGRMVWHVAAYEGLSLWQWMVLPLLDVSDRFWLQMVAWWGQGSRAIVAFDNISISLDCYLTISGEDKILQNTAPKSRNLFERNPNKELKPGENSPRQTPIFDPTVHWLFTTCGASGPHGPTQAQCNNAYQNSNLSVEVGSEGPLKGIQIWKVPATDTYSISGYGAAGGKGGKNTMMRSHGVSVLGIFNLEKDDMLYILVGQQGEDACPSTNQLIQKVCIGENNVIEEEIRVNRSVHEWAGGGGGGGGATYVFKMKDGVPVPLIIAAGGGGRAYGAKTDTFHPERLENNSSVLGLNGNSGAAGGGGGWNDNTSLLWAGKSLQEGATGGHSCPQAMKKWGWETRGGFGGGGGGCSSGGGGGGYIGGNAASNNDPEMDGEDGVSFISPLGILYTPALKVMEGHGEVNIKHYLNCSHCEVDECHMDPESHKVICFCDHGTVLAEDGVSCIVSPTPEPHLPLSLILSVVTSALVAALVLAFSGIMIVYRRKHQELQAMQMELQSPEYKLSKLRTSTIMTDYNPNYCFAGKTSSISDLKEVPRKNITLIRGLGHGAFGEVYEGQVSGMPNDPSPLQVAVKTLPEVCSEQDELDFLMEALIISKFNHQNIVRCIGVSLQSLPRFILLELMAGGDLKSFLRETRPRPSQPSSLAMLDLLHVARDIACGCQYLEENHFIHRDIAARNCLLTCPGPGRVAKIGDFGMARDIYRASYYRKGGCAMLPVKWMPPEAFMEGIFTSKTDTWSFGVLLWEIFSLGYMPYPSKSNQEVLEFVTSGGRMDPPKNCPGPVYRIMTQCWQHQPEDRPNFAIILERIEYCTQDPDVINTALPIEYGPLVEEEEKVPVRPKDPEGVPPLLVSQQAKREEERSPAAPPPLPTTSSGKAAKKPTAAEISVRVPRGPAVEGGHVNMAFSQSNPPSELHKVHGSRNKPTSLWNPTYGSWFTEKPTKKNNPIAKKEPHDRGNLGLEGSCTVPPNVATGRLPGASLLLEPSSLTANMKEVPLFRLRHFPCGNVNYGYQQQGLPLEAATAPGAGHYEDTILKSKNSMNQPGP
Procedure, shortened: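 Wells were coated with phospholipase C-γ at 10 μg/mL in Tris-buffered saline. Adding 30 ng/ml enzyme started the reaction, which ran at 37° C for 15 minutes before Eu-N1 PT66 antibody detection. Percent inhibition versus log10 concentration gave IC50 by variable-slope fit.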

[3] = 1 μM ATP (Km level), read-out: cMet Activity (c-Met Kinase Inhibition, IC50)
[4] = 1 μM ATP (Km level), read-out: ALK Activity (ALK Kinase Inhibition, IC50)
[5] = 1 μM ATP (Km level), 10 ng/mL c-Met, read-out: cMet Activity (c-Met kinase inhibition, IC50 class)
[6] = 1 μM ATP (Km level), 30 ng/ml ALK, 37° C., 15 minutes, read-out: ALK Activity (ALK kinase inhibition, IC50 class)
[7] = c-Met kinase inhibition, 1 μM ATP, read-out: cMet Activity
[8] = ALK kinase inhibition, 1 μM ATP, read-out: ALK Activity
[9] = c-Met kinase inhibition, 1 μM ATP (Km level), read-out: cMet Activity
[10] = ALK kinase inhibition, 1 μM ATP (Km level), read-out: ALK Activity

Structure (SMILES): COCCN1CCc2cc(Nc3ncc(Cl)c(NC4C5C=CC(C5)C4C(=O)NC(C)C)n3)c(OC)cc2CC1 (stereo not drawn) [Example 605, (2-exo-3-exo)-3-{5-Chloro-2-[8-methoxy-3-(2-methoxy-ethyl)-2,3,4,5-tetrahydro-1H-benzo[d]azepin-7-ylamino]-pyrimidin-4-ylamino}-bicyclo[2.2.1]hept-5-ene-2-carboxylic acid isopropylamide]
IC50 [1, 3]: > 10000 nM
IC50 [2, 4]: < 100 nM

Structure (SMILES): CS(=O)(=O)N[C@@H]1CCCC[C@H]1Nc1nc(Nc2ccc3c(c2)CN(CCO)CCS3)ncc1Cl [Example 525, N-((1R,2R)-2-{-5-Chloro-2-[8-(2-hydroxy-ethyl)-6,7,8,9-tetrahydro-5-thia-8-azabenzo-cyclohepten-2-ylamino]-pyrimidin-4-ylamino}cyclohexyl)-methanesulfonamide]
IC50 [1, 3]: 1000 to 10000 nM
IC50 [2, 4]: 100 to 1000 nM

Structure (SMILES): CCN1C(=O)CN(C(C)=O)Cc2ccc(Nc3ncc(Cl)c(Nc4c(C)csc4C(=O)NC)n3)cc21 [Example 1852, 3-[2-(4-Acetyl-1-ethyl-2-oxo-2,3,4,5-tetrahydro-1H-benzo[e][1,4]diazepin-8-ylamino)-5-chloro-pyrimidin-4-ylamino]-4-methyl-thiophene-2-carboxylic acid-methylamide]
IC50 [1, 7]: < 100 nM
IC50 [2, 8]: < 100 nM

Structure (SMILES): CCN1C(=O)CCCc2c1ccc(Nc1ncc(Cl)c(N[C@H]3CCC[C@H]3C(=O)NC)n1)c2OC (relative stereo) [Example 373, cis-2-[5-Chloro-2-(1-ethyl-6-methoxy-2-oxo-2,3,4,5-tetrahydro-1H-benzo[b]azepin-7-ylamino)-pyrimidin-4-ylamino]-cyclopentanecarboxylic acid methylamide]
IC50 [1, 9]: > 10000 nM
IC50 [2, 10]: < 100 nM

Structure (SMILES): CCN1C(=O)C(N(C)C)CCc2c1ccc(Nc1ncc(Cl)c(Nc3ccccc3-n3cccn3)n1)c2OC (stereo not drawn) [Example 1349, 7-[5-Chloro-4-(2-pyrazol-1-yl-phenylamino)-pyrimidin-2-ylamino]-3-dimethylamino-1-ethyl-6-methoxy-1,3,4,5-tetrahydro-benzo[b]azepin-2-one]
IC50 [1, 5]: > 10000 nM
IC50 [2, 6]: < 100 nM

Structure (SMILES): CCN1C(=O)C(NC(=O)C2CC2)CCc2c1ccc(Nc1ncc(Cl)c(Nc3ccccc3S(=O)(=O)N(C)C)n1)c2OC (stereo not drawn) [Example 1359, Cyclopropanecarboxylic acid {7-[5-chloro-4-(2-dimethylsulfamoyl-phenylamino)-pyrimidin-2-ylamino]-1-ethyl-6-methoxy-2-oxo-2,3,4,5-tetrahydro-1H-benzo[b]azepin-3-yl}-amide]
IC50 [1, 5]: > 10000 nM
IC50 [2, 6]: < 100 nM

Structure (SMILES): CNC(=O)c1ccccc1Nc1nc(Nc2ccc3c(c2)C2CCC3CN(C(=O)C(F)(F)F)C2)ncc1Cl (stereo not drawn) [Example 276, 2-{5-Chloro-2-[10-(2,2,2-trifluoro-acetyl)-10-aza-tricyclo[6.3.2.0*2,7*]trideca-2,4,6-trien-4-ylamino]-pyrimidin-4-ylamino}-N-methyl-benzamide]
IC50 [1, 9]: < 100 nM
IC50 [2, 10]: 100 to 1000 nM

Structure (SMILES): COCCN1CCc2ccc(Nc3ncc(Cl)c(N[C@@H]4CCC[C@@H](NS(C)(=O)=O)C4)n3)cc2CC1 (relative stereo) [Example 1379, rel-N-((1R,3R)-3-{5-Chloro-2-[3-(2-methoxy-ethyl)-2,3,4,5-tetrahydro-1H-benzo[d]azepin-7-ylamino]-pyrimidin-4-ylamino}-cyclohexyl)-methanesulfonamide]
IC50 [1, 5]: 1000 to 10000 nM
IC50 [2, 6]: 1000 to 10000 nM

Structure (SMILES): CNC(=O)c1cccc(Cl)c1Nc1nc(Nc2ccc3c(c2)-c2nccn2CCC3)ncc1Cl [Example 1845, 2-[5-Chloro-2-(5,6-dihydro-4H-1,3a-diaza-benzo[e]azulen-9-ylamino)-pyrimidin-4-ylamino]-3-chloro-N-methyl-benzamide]
IC50 [1, 7]: 100 to 1000 nM
IC50 [2, 8]: 100 to 1000 nM

Structure (SMILES): COc1c(Nc2ncc(Cl)c(N[C@H]3[C@@H](C(N)=O)[C@@H]4C=C[C@H]3C4)n2)ccc2c1CCCC(N1CCOCC1)C2 (single isomer, unassigned) [Example 940]
IC50 ([1]; cMet Activity (c-Met Kinase Inhibition, IC50), 1 μM ATP (Km level)): > 10000 nM
IC50 [2, 4]: < 100 nM

Structure (SMILES): CCN1C(=O)CCCc2cc(Nc3ncc(Cl)c(N[C@@H]4CCCC[C@H]4NS(C)(=O)=O)n3)c(OC)cc21 [Example 130, N-{(1R,2R)-2-[5-Chloro-2-(1-ethyl-8-methoxy-2-oxo-2,3,4,5-tetrahydro-1H-benzo[b]azepin-7-ylamino)-pyrimidin-4-ylamino]-cyclohexyl}-methanesulfonamide]
IC50 [1, 9]: > 10000 nM
IC50 [2, 10]: < 100 nM

Structure (SMILES): COc1ccc(Nc2nc(Nc3cc4c(cc3OC)CCN(CC(=O)N(C)C)CC4)ncc2Cl)c(S(=O)(=O)N(C)C)c1 [Example 820, 2-{7-[5-Chloro-4-(2-dimethylsulfamoyl-4-methoxy-phenylamino)-pyrimidin-2-ylamino]-8-methoxy-1,2,4,5-tetrahydro-benzo[d]azepin-3-yl}-N,N-dimethyl-acetamide]
IC50 [1, 3]: > 10000 nM
IC50 [2, 4]: < 100 nM

Structure (SMILES): COc1cc2c(cc1Nc1ncc(Cl)c(N[C@H]3[C@@H](C(N)=O)[C@@H]4C=C[C@H]3C4)n1)CCC(NCC(F)F)CC2 (single isomer, unassigned) [Example 1053]
IC50 [1, 5]: > 10000 nM
IC50 [2, 6]: < 100 nM

Structure (SMILES): CCN1CC(O)(CO)COc2ccc(Nc3ncc(Cl)c(Nc4c(F)cccc4C(=O)NC)n3)cc21 (stereo not drawn) [Example 1720, 2-[5-Chloro-2-(9-ethyl-7-hydroxy-7-hydroxymethyl-6,7,8,9-tetrahydro-5-oxa-9-aza-benzocyclohepten-2-ylamino)-pyrimidin-4-ylamino]-3-fluoro-N-methyl-benzamide]
IC50 [1, 7]: 100 to 1000 nM
IC50 [2, 8]: < 100 nM

Next, values leading:

IC50 [1, 5]: 100 to 1000 nM
IC50 [2, 6]: 100 to 1000 nM
Structure (SMILES): CNC(=O)c1cc(F)cc(F)c1Nc1nc(Nc2ccc3c(c2)CCN(CCOC)CC3)ncc1Cl [Example 1277, 2-{5-Chloro-2-[3-(2-methoxy-ethyl)-2,3,4,5-tetrahydro-1H-3-benzazepin-7-ylamino]-pyrimidin-4-ylamino}-3,5-difluoro-N-methyl-benzamide]

IC50 [1, 3]: 1000 to 10000 nM
IC50 [2, 4]: < 100 nM
Structure (SMILES): COc1cc(N2CCN(C)CC2)ccc1Nc1nc(Nc2ccc3c(c2)CCCC(=O)N3C(C)C)ncc1Cl [Example 674, 7-{5-Chloro-4-[2-methoxy-4-(4-methyl-piperazin-1-yl)-phenylamino]-pyrimidin-2-ylamino}-1-isopropyl-1,3,4,5-tetrahydro-benzo[b]azepin-2-one]

IC50 [1, 5]: 1000 to 10000 nM
IC50 [2, 6]: 100 to 1000 nM
Structure (SMILES): Cc1cccnc1-c1ccccc1Nc1nc(Nc2ccc3c(c2)CCC(O)CC3)ncc1Cl (stereo not drawn) [Example 1021, 2-{5-Chloro-4-[2-(3-methyl-pyridin-2-yl)-phenylamino]-pyrimidin-2-ylamino}-6,7,8,9-tetrahydro-5H-benzocyclohepten-7-ol]

IC50 [1, 9]: 100 to 1000 nM
IC50 [2, 10]: < 100 nM
Structure (SMILES): CNC(=O)c1ccccc1Nc1nc(Nc2ccc3c(c2)C2CC3CN(CCOC)C2)ncc1Cl (stereo not drawn) [Example 161, 2-{5-Chloro-2-[10-(2-methoxy-ethyl)-10-aza-tricyclo[6.3.1.0*2,7*]dodeca-2,4,6-trien-4-ylamino]-pyrimidin-4-ylamino}-N-methyl-benzamide]

IC50 [1, 7]: 1000 to 10000 nM
IC50 [2, 8]: 1000 to 10000 nM
Structure (SMILES): CNC(=O)c1cc(F)ccc1Nc1nc(Nc2ccc3c(c2)CN(C)C(=O)CC3)ncc1Cl [Example 1809, 2-[5-Chloro-2-(2-methyl-3-oxo-2,3,4,5-tetrahydro-1H-benzo[c]azepin-8-ylamino)-pyrimidin-4-ylamino]-5-fluoro-N-methyl-benzamide]

IC50 [1, 9]: < 100 nM
IC50 [2, 10]: < 100 nM
Structure (SMILES): CCN1C2CCC1c1cc(Nc3ncc(Cl)c(Nc4ccccc4C(=O)NC)n3)ccc1C2 (racemic) [Example 101, (+/−)-2-[5-Chloro-2-(12-ethyl-12-aza-tricyclo[7.2.1.0*2,7*]dodeca-2(7),3,5-trien-4-ylamino)-pyrimidin-4-ylamino]-N-methyl-benzamide]

IC50 [1, 9]: 1000 to 10000 nM
IC50 [2, 10]: < 100 nM
Structure (SMILES): CCN1C(=O)CCC(C)(C)c2cc(Nc3ncc(Cl)c(N[C@@H]4CCCC[C@H]4NS(C)(=O)=O)n3)ccc21 [Example 388, N-{(1R,2R)-2-[5-Chloro-2-(1-ethyl-5,5-dimethyl-2-oxo-2,3,4,5-tetrahydro-1H-benzo[b]azepin-7-ylamino)-pyrimidin-4-ylamino]-cyclohexyl}-methanesulfonamide]

IC50 [1, 7]: < 100 nM
IC50 [2, 8]: < 100 nM
Structure (SMILES): CNC(=O)c1cccc(F)c1Nc1nc(Nc2ccc3c(c2)CCOC(=O)N3C)ncc1Cl [Example 1742, 3-Fluoro-2-[5-chloro-2-(5-methyl-6-oxo-5,6,8,9-tetrahydro-7-oxa-5-aza-benzocyclohepten-2-ylamino)-pyrimidin-4-ylamino]-N-methyl-benzamide]

IC50 [1, 5]: 100 to 1000 nM
IC50 [2, 6]: < 100 nM
Structure (SMILES): COc1cc(N2CCOCC2)ccc1Nc1nc(Nc2ccc3c(c2)NC(=O)CCC3(C)C)ncc1Cl [Example 1234, 8-[5-Chloro-4-(2-methoxy-4-morpholin-4-yl-phenylamino)-pyrimidin-2-ylamino]-5,5-dimethyl-1,3,4,5-tetrahydro-1-benzazepin-2-one]

IC50 [1, 7]: 100 to 1000 nM
IC50 [2, 8]: < 100 nM
Structure (SMILES): C#CCNC(=O)c1cccc(F)c1Nc1nc(Nc2ccc3c(c2)N(C(C)C)CCCO3)ncc1Cl [Example 1733, 2-[5-Chloro-2-(9-isopropyl-6,7,8,9-tetrahydro-5-oxa-9-aza-benzocyclohepten-2-ylamino)-pyrimidin-4-ylamino]-3-fluoro-N-prop-2-ynyl-benzamide]
